We go through 16 compounds from patent US20230144824A1, “1H-PYRAZOLO[4,3-d]PYRIMIDINE COMPOUNDS AS TOLL-LIKE RECEPTOR 7 (TLR7) AGONISTS” (BRISTOL-MYERS SQUIBB COMPANY, priority 2020, published 2023).

Structures are written as SMILES. pEC50: −log10 of the molar value.

Test [1] concerns the target T1, human TLR7 (Homo sapiens, UniProt Q9NYK1).
T1 construct: host or cells: HEK-Blue TLR7 cells (engineered human embryonic kidney cells)
T1 sequence (Q9NYK1 27-1049): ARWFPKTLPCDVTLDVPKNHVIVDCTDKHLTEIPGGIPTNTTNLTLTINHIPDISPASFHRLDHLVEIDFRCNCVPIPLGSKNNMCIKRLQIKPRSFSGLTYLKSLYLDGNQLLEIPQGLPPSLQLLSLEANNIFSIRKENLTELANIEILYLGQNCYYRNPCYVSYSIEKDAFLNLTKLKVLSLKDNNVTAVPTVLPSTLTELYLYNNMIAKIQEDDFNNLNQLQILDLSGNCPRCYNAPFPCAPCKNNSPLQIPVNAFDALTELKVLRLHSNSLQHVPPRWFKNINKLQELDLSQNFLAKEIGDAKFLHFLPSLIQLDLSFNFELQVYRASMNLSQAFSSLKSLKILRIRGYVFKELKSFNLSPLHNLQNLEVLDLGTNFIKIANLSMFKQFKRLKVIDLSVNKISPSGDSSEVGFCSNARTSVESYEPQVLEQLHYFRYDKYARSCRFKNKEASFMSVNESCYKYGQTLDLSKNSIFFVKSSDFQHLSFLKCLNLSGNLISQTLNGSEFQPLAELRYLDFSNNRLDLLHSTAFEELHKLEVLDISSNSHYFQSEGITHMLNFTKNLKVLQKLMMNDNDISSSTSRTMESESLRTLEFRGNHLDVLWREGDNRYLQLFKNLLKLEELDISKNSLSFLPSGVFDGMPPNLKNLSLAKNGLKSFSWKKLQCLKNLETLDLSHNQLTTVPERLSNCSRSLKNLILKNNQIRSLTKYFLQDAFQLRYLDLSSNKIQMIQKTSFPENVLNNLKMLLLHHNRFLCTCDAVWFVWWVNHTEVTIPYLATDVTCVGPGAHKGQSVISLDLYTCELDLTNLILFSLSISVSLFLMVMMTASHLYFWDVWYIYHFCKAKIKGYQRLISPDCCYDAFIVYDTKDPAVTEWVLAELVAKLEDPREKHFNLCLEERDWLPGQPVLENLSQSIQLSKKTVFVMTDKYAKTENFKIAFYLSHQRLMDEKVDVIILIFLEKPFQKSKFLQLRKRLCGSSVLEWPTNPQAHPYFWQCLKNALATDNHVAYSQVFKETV
As to the kind of experiment: Human TLR7 agonist activity assay (HEK-Blue TLR7 SEAP reporter). It counts as cell-based. As to conditions: HEK-Blue TLR7 cells, 18 h treatment, average where assay performed multiple times, read-out: hTLR7 Agonism EC50. The method, then: This procedure describes a method for assaying human TLR7 (hTLR7) agonist activity of the compounds disclosed in this specification.
HEK-Blue™ TLR7 cells were added to each well of a 384-well tissue-culture plate (15,000 cells per well) and incubated 16-18 h at 37° C., 5% CO2. Compounds (100 nl) were dispensed into wells containing the HEK-Blue™ TLR cells and the treated cells were incubated at 37° C., 5% CO2. After 18 h treatment ten microliters of freshly-prepared Quanti-Blue™ reagent (Invivogen) was added to each well, incubated for 30 min (37° C., 5% CO2) and SEAP levels measured using an Envision plate reader (OD=620 nm). The half maximal effective concentration values (EC50; compound concentration which induced a response halfway between the assay baseline and maximum) were calculated.

For test [2], the system named is CD69. As to the kind of experiment: Induction of CD69 in human whole blood. The class given is cell-based. As to conditions: Homo sapiens, 17 h, 100% set to 1 uM of resiquimod, average where assay performed multiple times, read-out: hWB CD69 EC50. The method, then:
The induction of Type I interferon (IFN) MX-1 genes and the B-cell activation marker CD69 are downstream events that occur upon activation of the TLR7 pathway. The following is a human whole blood assay that measures their induction in response to a TLR7 agonist.
Heparinized human whole blood was harvested from human subjects and treated with test TLR7 agonist compounds at 1 mM. The blood was diluted with RPMI 1640 media and Echo was used to predot 10 nL per well giving a final concentration of 1 uM (10 nL in 10 uL of blood). After mixing on a shaker for 30 sec, the plates were covered and placed in a 37° C. chamber for o/n=17 hrs. Fixing/lysis buffer was prepared (5×->1× in H2O, warm at 37° C.; Cat #BD 558049) and kept the perm buffer (on ice) for later use.
For surface markers staining (CD69): prepared surface Abs: 0.045 ul hCD14-FITC (ThermoFisher Cat #MHCD1401)+0.6 ul hCD19-ef450 (ThermoFisher Cat #48-0198-42)+1.5 ul hCD69-PE (cat #BD555531)+0.855 ul FACS buffer. Added 3 ul/well, spin1000 rpm for 1 min and mixed on shaker for 30 sec, put on ice for 30 mins. Stop stimulation after 30 minutes with 70 uL of prewarmed 1× fix/lysis buffer and use Feliex mate to resuspend (15 times, change tips for each plate) and incubate at 37 C for 10 minutes.
Centrifuge at 2000 rpm for 5 minutes aspirate with HCS plate washer, mix on shaker for 30 sec and then wash with 70 uL in dPBS and pelleted 2×s (2000 rpm for 5 min) and 50 ul wash in FACS buffer pelleted 1×s (2000 rpm for 5 min). Mix on shaker for 30 sec. For Intracellular markers staining (MX-1): Add 50 ul of BD Perm buffer III and mix on shaker for 30 sec. Incubate on ice for 30 minutes (in the dark). Wash with 50 uL of FACS buffer 2×(spin @2300 rpm×5 min after perm) followed by mixing on shaker for 30 sec. Resuspended in 20 ul of FACS buffer containing MX1 antibody ( )(4812)-Alexa 647: Novus Biologicals #NBP2-43704AF647) 20 ul FACS bf+0.8 ul hIgG+0.04 ul MX-1. Spin 1000 rpm for 1 min, mix on shaker for 30 se and the samples were incubated at RT in the dark for 45 minutes followed by washing 2×FACS buffer (spin @2300 rpm×5 min after perm). Resuspend 20 ul (35 uL total per well) of FACS buffer and cover with foil and place in 4° C. to read the following day. Plates were read on iQuePlus. The results were loaded into toolset and IC50 curves are generated in curve master. The y-axis 100% is set to 1 uM of resiquimod.

Turning to `COc1cc(C2CCN(CCO)CC2)cnc1Cn1ncc2nc(N)nc(NCc3cc(C)on3)c21` [Compound 144, 2-(4-{6-[(5-amino-7-{[(5-methyl-1,2-oxazol-3-yl)methyl]amino}-1H-pyrazolo[4,3-d]pyrimidin-1-yl)methyl]-5-methoxypyridin-3-yl}piperidin-1-yl)ethan-1-ol], the negative logarithm of the EC50 (pEC50) in test [1] is 7.11; in test [2] it was 8.06. As for `CCC[C@@H](CCO)Nc1nc(N)nc2cnn(Cc3ncc(N4CCN(CC(C)(C)O)CC4)cc3OC)c12` [Compound 172, (3S)-3-{[5-amino-1-({5-[4-(2-hydroxy-2-methylpropyl)piperazin-1-yl]-3-methoxypyridin-2-yl}methyl)-1H-pyrazolo[4,3-d]pyrimidin-7-yl]amino}hexan-1-ol], the results for the pEC50 in test [1] and in test [2] were 7.70 and 7.97, respectively. The corresponding values for `COc1cc(C2CCN(C3CNC3)CC2)cnc1Cn1ncc2nc(N)nc(NCC3CC4(CC4)C3)c21` [Compound 158, 1-({5-[1-(azetidin-3-yl)piperidin-4-yl]-3-methoxypyridin-2-yl}methyl)-N7-({spiro[2.3]hexan-5-yl}methyl)-1H-pyrazolo[4,3-d]pyrimidine-5,7-diamine] are 6.65 and 7.16.

With `CCC[C@@H](CCO)Nc1nc(N)nc2cnn(Cc3ncc(C4CCN(CC(C)(C)O)CC4)cc3OC)c12` [Compound 151, (3S)-3-{[5-amino-1-({5-[1-(2-hydroxy-2-methylpropyl)piperidin-4-yl]-3-methoxypyridin-2-yl}methyl)-1H-pyrazolo[4,3-d]pyrimidin-7-yl]amino}hexan-1-ol], the pEC50 is 7.82 in test [1] and 9.49 in test [2]. The corresponding values for `CCCCNc1nc(N)nc2cnn(Cc3cc(F)c(N4CCN(C(=O)CN5CC(OC)C5)CC4)cc3OC)c12` [Compound 194, 1-[4-(4-{[5-amino-7-(butylamino)-1H-pyrazolo[4,3-d]pyrimidin-1-yl]methyl}-2-fluoro-5-methoxyphenyl)piperazin-1-yl]-2-(3-methoxyazetidin-1-yl)ethan-1-one] are 7.20 and 7.43. The corresponding values for `CCC[C@@H](CCO)Nc1nc(N)nc2cnn(Cc3nc(C4CCN(CCO)CC4)ccc3OC)c12` [Compound 188, (3S)-3-{[5-amino-1-({6-[1-(2-hydroxyethyl)piperidin-4-yl]-3-methoxypyridin-2-yl}methyl)-1H-pyrazolo[4,3-d]pyrimidin-7-yl]amino}hexan-1-ol] are 6.54 and 7.08. On the same counts, the results for `CCC[C@@H](CCO)Nc1nc(N)nc2cnn(Cc3nc(C4CCNCC4)ccc3OC)c12` [Compound 186, (3S)-3-[(5-amino-1-{[3-methoxy-6-(piperidin-4-yl)pyridin-2-yl]methyl}-1H-pyrazolo[4,3-d]pyrimidin-7-yl)amino]hexan-1-ol] are 5.78 and 6.62. As to `COc1cc(C2CCN(C)CC2)cnc1Cn1ncc2nc(N)nc(NCC3CC4(CC4)C3)c21` [Compound 159, 1-{[3-methoxy-5-(1-methylpiperidin-4-yl)pyridin-2-yl]methyl}-N7-({spiro[2.3]hexan-5-yl}methyl)-1H-pyrazolo[4,3-d]pyrimidine-5,7-diamine], the pEC50 was 7.21 in test [1] and 8.39 in test [2]. On to `CCCCNc1nc(N)nc2c(C)nn(Cc3ncc(C4CCN(C5CCOCC5)CC4)cc3OC)c12` [Compound 121, N7-butyl-1-({3-methoxy-5-[1-(oxan-4-yl)piperidin-4-yl]pyridin-2-yl}methyl)-3-methyl-1H-pyrazolo[4,3-d]pyrimidine-5,7-diamine], for which the figures for the pEC50 in test [1] and in test [2] were 6.22 and 6.92, respectively. Regarding `CCC[C@@H](CCO)Nc1nc(N)nc2cnn(Cc3ncc(C4CCN(Cc5ncco5)CC4)cc3OC)c12` [Compound 207, (3S)-3-({5-amino-1-[(3-methoxy-5-{1-[(1,3-oxazol-2-yl)methyl]piperidin-4-yl}pyridin-2-yl)methyl]-1H-pyrazolo[4,3-d]pyrimidin-7-yl}amino)hexan-1-ol], in test [1], the pEC50 was 7.60. Still for that read-out and setting: under `CCC[C@@H](CCO)Nc1nc(N)nc2cnn(Cc3ccc(C4CN(C(=O)CCN(C)C)CCN4)cc3OC)c12` (stereo partly drawn) [Compound 202, 1-(3-{4-[(5-amino-7-{[(3S)-1-hydroxyhexan-3-yl]amino}-1H-pyrazolo[4,3-d]pyrimidin-1-yl)methyl]-3-methoxyphenyl}piperazin-1-yl)-3-(dimethylamino)propan-1-one] stands 6.30. Same read-out and setting: under `CCCCNc1nc(N)nc2cnn(Cc3ccc(C4CCNCC4)cc3OC)c12` [Compound 160, N7-butyl-1-{[2-methoxy-4-(piperidin-4-yl)phenyl]methyl}-1H-pyrazolo[4,3-d]pyrimidine-5,7-diamine] stands 7.89; under `CCC[C@@H](CCO)Nc1nc(N)nc2c(C)nn(Cc3cnc(C4CCN(CC#N)CC4)cc3OC)c12` [Compound 220, 2-(4-{5-[(5-amino-7-{[(3S)-1-hydroxyhexan-3-yl]amino}-3-methyl-1H-pyrazolo[4,3-d]pyrimidin-1-yl)methyl]-4-methoxypyridin-2-yl}piperidin-1-yl)acetonitrile], 6.36; under `CCCCNc1nc(N)nc2cnn(Cc3ncc(C4CCN(CC5CCOCC5)CC4)cc3OC)c12` [Compound 218, N7-butyl-1-[(3-methoxy-5-{1-[(oxan-4-yl)methyl]piperidin-4-yl}pyridin-2-yl)methyl]-1H-pyrazolo[4,3-d]pyrimidine-5,7-diamine], 7.59. Same read-out and setting: under `CCC[C@@H](CCO)Nc1nc(N)nc2c(C)nn(Cc3cnc(C4CCN(C5CCOCC5)CC4)cc3OC)c12` [Compound 222, (3S)-3-{[5-amino-1-({4-methoxy-6-[1-(oxan-4-yl)piperidin-4-yl]pyridin-3-yl}methyl)-3-methyl-1H-pyrazolo[4,3-d]pyrimidin-7-yl]amino}hexan-1-ol] stands 6.77; under `CCC[C@@H](CCO)Nc1nc(N)nc2cnn(Cc3ccc(C4CN(CC(C)(C)O)CCN4)cc3OC)c12` (stereo partly drawn) [Compound 209, (3S)-3-{[5-amino-1-({4-[4-(2-hydroxy-2-methylpropyl)piperazin-2-yl]-2-methoxyphenyl}methyl)-1H-pyrazolo[4,3-d]pyrimidin-7-yl]amino}hexan-1-ol], 7.91.
